Results reported in PMC5715147, “Albumin/vaccine nanocomplexes that assemble in vivo for combination cancer immunotherapy” (Nature Communications, 2017).

Experiments:
[1] = rhesus monkey, in vivo; cited from earlier work
Text: Here we took a clinically oriented perspective to develop AlbiVax by first repurposing a clinically practiced EB that binds to albumin at binding site I[33], and then conjugating molecular vaccines with an EB derivative. The resulting albumin/AlbiVax nanocomplexes that assemble in vivo were efficiently delivered to LNs and induced potent and durable anti-cancer immunity. EB and derivatives have been developed for preclinical and clinical LN identification[34]–[39]. They have excellent clinical safety profiles[36],[39], and rhesus monkeys survived 25 mg kg^−1 systemically injected EB[40], a dos ... || Safe and robust T cell vaccines would hold great promise for combination cancer immunotherapy. Locally administered vaccines must provide efficient delivery to LNs for effective antitumor immunomodulation. Nanovaccines are a promising approach for efficient vaccine delivery to LNs, and quite a few have been developed preclinically, yet the clinical translation of these nanoformulas has been hindered by limitations in their safety, suitability for reproducible large-scale manufacturing, and in vivo integrity. We chose albumin, one of the most successful carriers of nanomedicines in the clinic, ...

[2] = PET quantification of vaccine delivery to draining LNs after s.c. injection; format: in vivo, FVB mice; conditions: 64Cu-labeled, s.c. at tail base
Protocol: AlbiVax was radiolabeled with ^64Cu for PET. To label ^64Cu via chelation, a NOTA-functionalized MEB (NMEB) was synthesized and conjugated with vaccines. […] The reaction was shaken for 0.5 h at 37 °C. Thereafter, the radiochemical purity was determined using iTLC plates (Fisher Scientific), developed in 0.1 M citric acid (pH 5).
Female FVB mice (6–8 weeks) were used in all PET imaging studies in naive mice. C57BL/6 mice (6–8 weeks) were used in PET imaging of tumor-bearing mice. Mice were anesthetized using isoflurane/O^2 (2% v v^−1) before injection. Anesthetized mice were injected s.c. at the base of tail with ^64Cu-labeled vaccines (4.44−5.55 MBq/120–150 μCi each mouse) in PBS (100 μL). At indicated time points post injection, mice were scanned on an Inveon DPET scanner (Siemens Medical Solutions, Malvern, PA). PET images were reconstructed without correction for attenuation or scattering using a three-dimensional ordered subsets expectation maximization algorithm. ASI Pro VM^TM software was used for image analysis. Regions of interest (ROI) were drawn on LNs to calculate the %ID/g.

[3] = Biodistribution in resected organs by γ counting; parameters: species or system FVB mice; conditions: mouse, in vivo, sc
Protocol: The above mice were killed at specified time points. Organs and blood were collected and wet weighed. The collected organs and blood, together with a series of standard solutions, were measured for ^64Cu radioactivity on a gamma counter (Wallac Wizard 1480, PerkinElmer). The radioactivity of organs and blood was converted to calculate the percentages of the injected dose (%ID) in organs of interest and the percentages of the injected dose per gram of tissue (%ID/g).

[4] = human, in vivo; cited from earlier work

Q: Which “systemically injected dose survived” value [1] does the source give for `Cc1cc(-c2ccc(/N=N/c3ccc4c(S(=O)(=O)O)cc(S(=O)(=O)O)c(N)c4c3O)c(C)c2)ccc1/N=N/c1ccc2c(S(=O)(=O)O)cc(S(=O)(=O)O)c(N)c2c1O` [EB, Evans blue] here?
A: The value was 25 mg/kg.

Q: For `CC(C)C[C@H](NC(=O)[C@H](Cc1c[nH]c2ccccc12)NC(=O)[C@@H](NC(=O)[C@H](Cc1ccccc1)NC(=O)[C@H](Cc1ccccc1)NC(=O)[C@H](CC(=O)O)NC(=O)[C@H](Cc1ccc(O)cc1)NC(=O)[C@@H](NC(=O)[C@H](CO)NC(=O)[C@@H](N)CS)C(C)C)C(C)C)C(=O)O` [Trp2], which “LN delivery (in words)” value ([2]; PET) is on record?
A: The value was “no detectable”.

Q: For “CpG: CpG1826 (TCCATGACGTTCCTGACGTT), phosphorothioate oligodeoxynucleotide, TLR9 agonist”, which “injection dose (%ID) delivered to inguinal (IN) and axillary (AX) LNs” value ([2]; 4.4–5.5 Mbq, decay-corrected PET over 3 days, n = 4–8) is on record?
A: Its value is less than 0.3 %ID.

Q: And the “%ID/g in IN LNs on day 5” value [3]?
A: The value was 2.5 ± 1.3 %ID/g.

Q: And the “percent injection dose per gram of tissue in IN LNs on day 3” value [3]?
A: The value was 8.3 ± 4.7 %ID/g.

Q: Which half-life [4] does the source give for albumin here?
A: Its half-life is “over 20 days”.
